Assay results from PubChem BioAssay AID248 (DTP/NCI, 2004).
“And” between values parts separate entries of the source, which are not always exact repeats. Equal entries are not always repeated. Inconclusive results and toxic doses are left out. Rule as the data show it: active = T/C of 150% or more; inactive = T/C below 125%.

Tested on: L1210 leukemia ip in BDF1 mice, survival T/C
Assay: NCI In Vivo Anticancer Drug Screen. Data for tumor model L1210 Leukemia (intraperitoneal) in B6D2F1 (BDF1) mice
Details: endpoint: mean survival time, higher = longer survival
In short: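 Mice bearing the transplanted tumor received compound or vehicle. Survival of the treated group was divided by that of the vehicle-treated control group to give the ratio.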

[1] = dose: 100.0 mg/kg/injection, schedule: Q01DX001 (ip), vehicle: carboxymethylcellulose (CMC)
[2] = dose: 200.0 mg/kg/injection, schedule: Q01DX001 (ip), vehicle: carboxymethylcellulose (CMC)
[3] = dose: 400.0 mg/kg/injection, schedule: Q01DX001 (ip), vehicle: carboxymethylcellulose (CMC)
[4] = dose: 100.0 mg/kg/injection, schedule: Q04DX003 (ip), vehicle: Klucel (hydroxypropylcellulose) (HPC)
[5] = dose: 200.0 mg/kg/injection, schedule: Q04DX003 (ip), vehicle: Klucel (hydroxypropylcellulose) (HPC)
[6] = dose: 100.0 mg/kg/injection, schedule: Q04DX003 (ip), vehicle: saline with Tween-80
[7] = dose: 200.0 mg/kg/injection, schedule: Q04DX003 (ip), vehicle: saline with Tween-80
[8] = dose: 400.0 mg/kg/injection, schedule: Q04DX003 (ip), vehicle: saline with Tween-80
[9] = dose: 100.0 mg/kg/injection, schedule: Q01DX009 (ip), vehicle: saline with Tween-80
[10] = dose: 200.0 mg/kg/injection, schedule: Q01DX009 (ip), vehicle: saline with Tween-80
[11] = dose: 400.0 mg/kg/injection, schedule: Q01DX009 (ip), vehicle: saline with Tween-80
[12] = dose: 100.0 mg/kg/injection, schedule: Q01DX001 (ip), vehicle: saline
[13] = dose: 200.0 mg/kg/injection, schedule: Q01DX001 (ip), vehicle: saline
[14] = dose: 400.0 mg/kg/injection, schedule: Q01DX001 (ip), vehicle: saline

Measured: T/C

c1nc2c(o1)CCCC2
inactive: dose: 50.0 mg/kg/injection, schedule: Q04DX002 (ip), vehicle: carboxymethylcellulose (CMC) 98 % of control | dose: 50.0 mg/kg/injection, schedule: Q04DX002 (ip), vehicle: other 97 % of control | dose: 100.0 mg/kg/injection, schedule: Q04DX002 (ip), vehicle: carboxymethylcellulose (CMC) 98 % of control | dose: 100.0 mg/kg/injection, schedule: Q04DX002 (ip), vehicle: other 100 % of control | dose: 200.0 mg/kg/injection, schedule: Q04DX002 (ip), vehicle: carboxymethylcellulose (CMC) 95 % of control | dose: 200.0 mg/kg/injection, schedule: Q04DX002 (ip), vehicle: other 93 % of control

COC1OCC2OC(C)(C)OC2C1OS(=O)(=O)c1ccc([N+](=O)[O-])cc1 (configuration not stated)
inactive: [1] 95 % of control | [2] 95 % of control | [3] 101 % of control

CCC(C)C1(C)C(=O)N(C)C(=S)N(C)C1=O (configuration not stated)
inactive: dose: 5.0 mg/kg/injection, schedule: Q01DX001 (ip), vehicle: saline 95 % of control | dose: 10.0 mg/kg/injection, schedule: Q01DX001 (ip), vehicle: saline 91 % of control | dose: 20.0 mg/kg/injection, schedule: Q01DX001 (ip), vehicle: saline 96 % of control | dose: 40.0 mg/kg/injection, schedule: Q01DX001 (ip), vehicle: saline 89 % of control

C1CC2CC2CCC2CC12 (configuration not stated)
inactive: dose: 100.0 mg/kg/injection, schedule: Q01DX009 (ip), vehicle: Klucel (hydroxypropylcellulose) (HPC) 104 % of control | [4] 101 % of control | dose: 200.0 mg/kg/injection, schedule: Q01DX009 (ip), vehicle: Klucel (hydroxypropylcellulose) (HPC) 95 % of control | [5] 95 % of control | dose: 400.0 mg/kg/injection, schedule: Q01DX009 (ip), vehicle: Klucel (hydroxypropylcellulose) (HPC) 102 % of control | dose: 400.0 mg/kg/injection, schedule: Q04DX003 (ip), vehicle: Klucel (hydroxypropylcellulose) (HPC) 101 % of control

Cc1cc(C)c(C(=O)N/N=C/c2ccc(N(CCCl)CCCl)cc2)c(=O)[nH]1
inactive: dose: 50.0 mg/kg/injection, schedule: Q01DX001 (ip), vehicle: carboxymethylcellulose (CMC) 97 % of control | [1] 100 % of control | [2] 103 % of control | [3] 92 % of control

OCC(c1ccccc1)C(O)Cc1ccccc1 (configuration not stated)
inactive: [1] 97 % of control | [2] 95 % of control | [3] 101 % of control

COC(=O)CCCN1CC2C=C(C#N)C1C(C(=O)OC)C2 (configuration not stated)
inactive: dose: 150.0 mg/kg/injection, schedule: Q01DX001 (ip), vehicle: saline 93 % of control | dose: 300.0 mg/kg/injection, schedule: Q01DX001 (ip), vehicle: saline 93 % of control

NC(=O)c1c(/N=C/c2ccccc2Cl)sc2c1CCCC2
inactive: dose: 100.0 mg/kg/injection, schedule: Q04DX002 (ip), vehicle: saline with Tween-80 91 % of control | dose: 200.0 mg/kg/injection, schedule: Q04DX002 (ip), vehicle: saline with Tween-80 87 % of control | dose: 400.0 mg/kg/injection, schedule: Q04DX002 (ip), vehicle: saline with Tween-80 91 % of control

CCCC(=O)Nc1ccc(C(=O)OCC)cc1
inactive: dose: 100.0 mg/kg/injection, schedule: Q04DX002 (ip), vehicle: saline 93 % of control | dose: 200.0 mg/kg/injection, schedule: Q04DX002 (ip), vehicle: saline 100 % of control | dose: 400.0 mg/kg/injection, schedule: Q04DX002 (ip), vehicle: saline 107 % of control

CC(Br)C(=O)NC(Cc1ccccc1)C(=O)O (configuration not stated)
inactive: dose: 100.0 mg/kg/injection, schedule: Q01DX009 (ip), vehicle: alcohol 93 % of control | dose: 100.0 mg/kg/injection, schedule: Q04DX003 (ip), vehicle: other 104 % of control | [6] 94 % of control | dose: 200.0 mg/kg/injection, schedule: Q01DX009 (ip), vehicle: alcohol 100 % of control | dose: 200.0 mg/kg/injection, schedule: Q04DX003 (ip), vehicle: other 104 % of control and 88 % of control | [7] 96 % of control | dose: 400.0 mg/kg/injection, schedule: Q01DX009 (ip), vehicle: alcohol 90 % of control | dose: 400.0 mg/kg/injection, schedule: Q04DX003 (ip), vehicle: other 92 % of control and 88 % of control | [8] 91 % of control

O=C(/C=C/C=C/c1ccccc1)c1ccccc1O
inactive: dose: 50.0 mg/kg/injection, schedule: Q01DX009 (ip), vehicle: saline with Tween-80 91 % of control | [9] 87 % of control and 89 % of control | [6] 94 % of control | [10] 94 % of control | [7] 91 % of control | [11] 89 % of control | [8] 93 % of control

O=C(Oc1ccccc1)C(O)CO (configuration not stated)
inactive: [9] 92 % of control | [10] 96 % of control | [11] 93 % of control

CC(=O)OCC1OC(Sc2cccc3ccccc23)C(OC(C)=O)C(OC(C)=O)C1OC(C)=O (configuration not stated)
inactive: [12] 104 % of control | [13] 93 % of control | [14] 98 % of control

COC(=O)/C=C(\C)CCC1OC1(C)C (configuration not stated)
inactive: [12] 105 % of control | dose: 100.0 mg/kg/injection, schedule: Q04DX003 (ip), vehicle: acetone 95 % of control | [13] 100 % of control | dose: 200.0 mg/kg/injection, schedule: Q04DX003 (ip), vehicle: acetone 108 % of control | [14] 94 % of control | dose: 400.0 mg/kg/injection, schedule: Q04DX003 (ip), vehicle: acetone 103 % of control

O=C(NCCCl)NC1CCc2ccccc21 (configuration not stated)
inactive: dose: 20.0 mg/kg/injection, schedule: Q04DX003 (ip), vehicle: Klucel (hydroxypropylcellulose) (HPC) 92 % of control | dose: 40.0 mg/kg/injection, schedule: Q04DX003 (ip), vehicle: Klucel (hydroxypropylcellulose) (HPC) 92 % of control | dose: 80.0 mg/kg/injection, schedule: Q04DX003 (ip), vehicle: Klucel (hydroxypropylcellulose) (HPC) 91 % of control | [4] 95 % of control | [5] 106 % of control

COc1ccc(C2(OC(=O)c3ccc([N+](=O)[O-])cc3)C3C=CC2CC3)cc1 (configuration not stated)
inactive: dose: 100.0 mg/kg/injection, schedule: Q04DX002 (ip), vehicle: Klucel (hydroxypropylcellulose) (HPC) 87 % of control | dose: 200.0 mg/kg/injection, schedule: Q04DX002 (ip), vehicle: Klucel (hydroxypropylcellulose) (HPC) 107 % of control | dose: 400.0 mg/kg/injection, schedule: Q04DX002 (ip), vehicle: Klucel (hydroxypropylcellulose) (HPC) 90 % of control

O/N=C1/CCCC/C1=C/c1ccc(Cl)cc1
inactive: [9] 104 % of control | [10] 111 % of control | [11] 88 % of control

Cc1ccc(C2NC(=S)N3C(c4ccc(C)cc4)NC(=S)N23)cc1 (configuration not stated)
inactive: dose: 100.0 mg/kg/injection, schedule: Q01DX009 (ip), vehicle: gum acacia 105 % of control | dose: 100.0 mg/kg/injection, schedule: Q04DX003 (ip), vehicle: gum acacia 95 % of control | dose: 200.0 mg/kg/injection, schedule: Q01DX009 (ip), vehicle: gum acacia 100 % of control | dose: 200.0 mg/kg/injection, schedule: Q04DX003 (ip), vehicle: gum acacia 90 % of control | dose: 400.0 mg/kg/injection, schedule: Q01DX009 (ip), vehicle: gum acacia 91 % of control | dose: 400.0 mg/kg/injection, schedule: Q04DX003 (ip), vehicle: gum acacia 95 % of control

CC1(C)CC(=O)c2c(OC(=O)N(CCCl)CCCl)cc(OC(=O)N(CCCl)CCCl)cc2O1
inactive: dose: 25.0 mg/kg/injection, schedule: Q04DX002 (ip), vehicle: alcohol 94 % of control | dose: 50.0 mg/kg/injection, schedule: Q04DX002 (ip), vehicle: alcohol 113 % of control | dose: 100.0 mg/kg/injection, schedule: Q04DX002 (ip), vehicle: alcohol 94 % of control | dose: 200.0 mg/kg/injection, schedule: Q04DX002 (ip), vehicle: alcohol 97 % of control | dose: 400.0 mg/kg/injection, schedule: Q04DX002 (ip), vehicle: alcohol 90 % of control

CC(C)(C)C1CCC2SC(C)(C(C)(C)C)CC(C(C)(C)C)C2C1 (configuration not stated)
inactive: dose: 100.0 mg/kg/injection, schedule: Q01DX001 (ip), vehicle: saline with Tween-80 104 % of control | dose: 200.0 mg/kg/injection, schedule: Q01DX001 (ip), vehicle: saline with Tween-80 98 % of control | dose: 400.0 mg/kg/injection, schedule: Q01DX001 (ip), vehicle: saline with Tween-80 91 % of control
